Tests used:
[1] = target: T1, recombinant GST-ALK5 (residues 198-503) (Homo sapiens, UniProt P36897); assay: Assay 2 (Alk5 Fluorescence Polarization Assay); assay type: binding; details: rhodamine green-labelled ligand 1 nM, ALK5 10 nM, read-out: ALK5 receptor modulator activity (IC50)
T1 construct: assays using recombinant GST-ALK5 (residues 198-503); GST (N)
T1 sequence (P36897 198-503): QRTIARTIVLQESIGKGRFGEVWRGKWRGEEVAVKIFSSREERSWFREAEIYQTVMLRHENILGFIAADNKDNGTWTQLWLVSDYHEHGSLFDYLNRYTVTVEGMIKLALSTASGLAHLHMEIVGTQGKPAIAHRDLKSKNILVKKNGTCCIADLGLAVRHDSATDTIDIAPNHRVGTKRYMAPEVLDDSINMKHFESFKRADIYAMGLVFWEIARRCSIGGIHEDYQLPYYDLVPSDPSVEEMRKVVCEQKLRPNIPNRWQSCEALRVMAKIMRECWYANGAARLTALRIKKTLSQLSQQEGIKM
Method: Assay 2 (Alk5 Fluorescence Polarization Assay)
Kinase inhibitor compounds conjugated to fluorophores, can be used as fluorescent ligands to monitor ATP competitive binding of other compounds to a given kinase. The increase in depolarization of plane polarized light, caused by release of the bound ligand into solution, is measured as a polarization/anisotropy value. This protocol details the use of a rhodamine green-labelled ligand for assays using recombinant GST-ALK5 (residues 198-503).
Assay buffer components: 62.5 mM Hepes pH 7.5 (Sigma H-4034), 1 mM DTT (Sigma D-0632), 12.5 mM MgCl2 (Sigma M-9272), 1.25 mM CHAPS (Sigma C-3023). […]
ALK5 was added to assay buffer containing the above components and 1 nM of the rhodamine green-labelled ligand so that the final ALK5 concentration was 10 nM based on active site titration of the enzyme. […] The plates were read immediately on a UL Acquest fluorescence reader (Molecular Devices, serial number AQ1048) with excitation, emission, and dichroic filters of 485 nm, 530 nm, and 505 nm, respectively. The fluorescence polarization for each well was calculated by the Acquest reader and then imported into curve fitting software for construction of concentration response curves. The normalized response was determined relative to the high controls (1 μl DMSO in column 12, rows […]) and the low controls (1 μl of control compound in column 12, rows E-H). […]

[2] = test system: HepG2 cells stably transfected with the PAI-1 promoter linked to a luciferase (firefly) reporter gene, exposed to TGF-β; assay: Assay 1 (Cellular Transcriptional Assay): TGF-β induced PAI-1 promoter luciferase reporter; details: for IC50: Homo sapiens, HepG2, read-out: TGF-β cellular activity (IC50)
Method: The assay was performed in HepG2 cells stably transfected with the PAI-1 promoter (known to be a strong TGF-β responsive promoter) linked to a luciferase (firefly) reporter gene. The compounds were selected on their ability to inhibit luciferase activity in cells exposed to TGF-β. In addition, cells were transfected with a second luciferase (Renilla) gene which was not driven by a TGF-β responsive promoter and was used as a toxicity control.
96 well microplates were seeded, using a multidrop apparatus, with the stably transfected cell line at a concentration of 35000 cells per well in 200 μl of serum-containing medium. These plates were placed, in a cell incubator.
18 to 24 hours later (Day 2), cell-incubation procedure was launched: Cells were incubated with TGF-β and a candidate compound at concentrations in the range 50 nM to 10 μM (final concentration of DMSO 1%). The final concentration of TGF-β (rhTGFβ-1) used in the test was 1 ng/mL. […] The final volume of the test reaction was 150 μl. Each well contained only one candidate compound and its effect on the PAI-1 promoter was monitored.
Columns 11 and 12 were employed as controls. Column 11 contained 8 wells in which the cells were incubated in the presence of TGF-β, without a candidate compound. Column 11 was used to determine the ‘reference TGF-β induced firefly luciferase value’ against which values measured in the test wells (to quantify inhibitory activity) were compared. In wells A12 to D12, cells were grown in medium without TGF-β. […]
12 to 18 hours later (day 3), the luciferase quantification procedure was launched. […] Following agitation (15 to 30 mins), luciferase activities of the plates were read in a dual-injector luminometer (BMG lumistar). For this purpose, 50 μl of luciferase assay reagent and 50 μl of ‘Stop & Glo’ buffer were injected sequentially to quantify the activities of both luciferases. […] For each of the compounds tested, a concentration response curve was constructed from which an IC50 value was determined graphically.

IC50 [1]	IC50 [2]	melting point	Compound	firefly and renilla luciferase activities, relative to TGF-β only wells ([2]; 500 μM, in the presence of TGF-β, toxicity control)
27 nM	104 nM	228 to 230 °C	CCN1C(=O)COc2ccc(-c3sc(N)nc3-c3cccc(C)n3)cc21 [Example 6, 5-[4-ethyl-4H-benzo[1,4]oxazin-3-one-6-yl]-4-(6-methylpyridin-2-yl)-1,3-thiazol-2-amine]	–
16 nM	11 nM	244 to 246 °C	Cc1cccc(-c2nc(N)sc2-c2ccc3ncn(C)c3c2)n1 [Example 1, 5-(1-methyl-benzimidazol-6-yl)-4-(6-methylpyridin-2-yl)-1,3-thiazol-2-amine]	–
–	–	240 to 242 °C	Cc1cccc(-c2nc(N)sc2-c2ccc3c(c2)N(C)C(=O)CO3)n1 [Example 5, 5-[4-methyl-4H-benzo[1,4]oxazin-3-one-6-yl]-4-(6-methylpyridin-2-yl)-1,3-thiazol-2-amine]	–
–	–	170 to 172 °C	Cc1cccc(-c2sc(N)nc2-c2ccc3c(c2)OCO3)n1 [Example 7, 4-(Benzo[1,3]dioxol-5-yl)-5-(6-methylpyridin-2-yl)-1,3-thiazol-2-amine]	–
–	–	214 °C	Nc1nc(-c2ccc3c(c2)OCCO3)c(-c2ccccn2)s1 [Example 8, 4-(Benzodioxan-6-yl)-5-(Pyridin-2-yl)-1,3-thiazol-2-amine]	–
–	–	200 to 202 °C	COCCn1cnc2ccc(-c3sc(N)nc3-c3cccc(C)n3)cc21 [Example 4, 5-(1-(2-methoxyethyl)-benzimidazol-6-yl)-4-(6-methylpyridin-2-yl)-1,3-thiazol-2-amine]	–
–	–	218 to 220 °C	CCn1cnc2ccc(-c3sc(N)nc3-c3cccc(C)n3)cc21 [Example 3, 5-(1-ethyl-benzimidazol-6-yl)-4-(6-methylpyridin-2-yl)-1,3-thiazol-2-amine]	–
–	–	226 °C	Nc1nc(-c2ccc3ncccc3c2)c(-c2ccccn2)s1 [Example 9, 4-(Quinolin-6-yl)-5-(pyridin-2-yl)-1,3-thiazol-2-amine]	–
–	–	–	O=C1C=CCC1 [CPO, Cyclopentenone, reference compound]	around 50%
–	–	188 to 190 °C	Cc1cccc(-c2sc(N)nc2-c2ccc3ncoc3c2)n1 [Example 2, 4-(benzoxazol-6-yl)-5-(6-methyl-pyridin-2-yl)-1,3-thiazol-2-amine]	–

From patent US20060247233A1, “Thiazoles inhibitors of the alk-5 receptor” (priority 2003, published 2006)
